According to paper PMC10799935, “Discovery of a peripheral 5HT2A antagonist as a clinical candidate for metabolic dysfunction-associated steatohepatitis” (Nature Communications, 2024):
Where “and” joins values, the source holds several entries; their conditions need not be identical. Identical values can stand only once. Like-named read-outs stand apart in the source and are kept apart here.

What was measured:
[1] = test system: α-SMA; assay: CDAHFD mice: liver α-SMA RNA expression (qRT-PCR); type: in vivo, mouse; settings: for Relative liver α-SMA expressions in mice, measured using quantitative RT-PCR: individual mice and Average
From the text: C57BL/6 J male mice were purchased from the Japan SLC. Inc (Hamamatsu, Japan). Mice (5 weeks old) were fed Teklad Certitied Irradiated Global 18% protein rodent diet purchased from Dooyeol Biotech Co. Ltd (Seoul, South Korea) during the acclimation period. The liver fibrosis/inflammation-induced groups were CDAHFD-fed (A06071302, Research diet). […]. […] All animal experiments complied with the relevant ethical regulations.
The frozen liver tissue was homogenized and put into QiAzol (Qiagen, Hilden) to isolate RNA, and 4 μg of RNA was synthesized into cDNA using the RevertAid First Strand cDNA synthesis kit (Thermo Fischer, Waltham). The expressions of mouse collagen I (Forward: 5’-TGTGTTCCCTACTCAGCCGTG-3’. Reverse: 5’-CATCGGTCATGCTCTCTCCAA-3’), mouse α-SMA (Forward:5’-TCCTGACGCTGAAGTATCCGAT-3’, Reverse: 5’-GGCCACACAAAGCTCGTTATAG-3’) and mouse 36B4 (Forward: 5’-ACCTCCTTCTTCCAGGCTTT-3’, Reverse: 5’-CTCCAGTCTTTATCAGCTGC-3’) as house-keeping gene were measured using ViiA 7 Real-time PCR system (Thermo Fischer scientific).

[2] = in vitro; settings: rat, plasma
[3] = biological target: T1, 5HT1A (h) (Homo sapiens, UniProt P08908); assay: 5HT subtype antagonism assay (Eurofins Cerep): 5HT1A; type: cell-based; settings: concentration not given
T1 construct: host or cells: BA/F3 cells

[4] = Pharmacokinetic study in dogs; type: in vivo, Beagle dogs; settings: dog
Experimental: The experimental protocol for this study was approved by the IACUC of KPC Co., Ltd. (No. KPC IACUC-P203046; Beagle dogs) or QuBEST BIO (No.QBIACUC-A20131). All relevant ethical guidelines were followed. Beagle male dogs (11 ~ 20 months old) were purchased from ORIENT BIO Inc. and were housed in the barrier animal facility of KPC Co., Ltd. under a regular light-dark cycle (12-hour light/12-hour dark) at 21.1–23.4°C with 55.3–72.2% humidity. Food (standard irradiated pelleted commercial laboratory diet, Cargill Agri Purina, 300 g/dog.day) and water were provided ad libitum. All study dogs were returned to the laboratory colony after the study without any euthanasia. Sprague-Dawley male rats (7 weeks old) were purchased from SAMTAKOBIOKOREA, Inc. and were housed in the barrier animal facility of Nonclinical Research Center, QuBEST BIO under a regular light-dark cycle (12-hour light/12-hour dark) at 19.7–22.7°C with 54.5–65.6% humidity. Food (standard irradiated pelleted commercial laboratory diet, Purina Rodent Chow, 38057) and water were provided ad libitum. All study rats were euthanized by CO2 gas upon study completion.
Blood samples were collected at the scheduled times up to 24 h post-dose (IV: 0.083, 0.25, 0.5, 1, 2, 4, 8, 12 and 24 h post-dose, PO: 0.25, 0.5, 1, 2, 4, 8, 12 and 24 h post-dose). Determination of compound 11c in plasma was performed by UHPLC-MS/MS. Pharmacokinetic parameters were calculated by noncompartmental analysis using Phoenix® WinNonlin® (Ver. 8.3‘, Certara).

[5] = test system: CDAHFD-fed C57BL/6 J mice; assay: CDAHFD mice: food intake; type: in vivo, mouse; settings: amongst CDAHFD-fed groups, 12 weeks
From the text: C57BL/6 J male mice were purchased from the Japan SLC. Inc (Hamamatsu, Japan). Mice (5 weeks old) were fed Teklad Certitied Irradiated Global 18% protein rodent diet purchased from Dooyeol Biotech Co. Ltd (Seoul, South Korea) during the acclimation period. The liver fibrosis/inflammation-induced groups were CDAHFD-fed (A06071302, Research diet). […] All animal experiments complied with the relevant ethical regulations.
Supplementary Figure 4. Food intake. Food intake of vehicle and CDAHFD-fed mice, two-way
ANOVA with the Holm-Sidak post hoc test. The data are presented as mean ± SD (n = 2 cages per
(1 picture or pasted object on this page, not shown here)

[6] = biological target: T2, 5HT1B (h) (Homo sapiens, UniProt P28222); assay: 5HT subtype antagonism assay (Eurofins Cerep): 5HT1B; type: cell-based; settings: concentration not given
T2 construct: host or cells: Hela cells
Experimental: The derivatives were evaluated at a concentration of 1 μM for their antagonist activity on the 5HT2A receptor (Tables 1–3)[33],[34]. Human 5HT2A stably transfected HEK293 cells (a type of cell derived from kidney embryos)[20] were seeded in a 96-well plate (Costar; 3603) at a density of 9 × 10^4 in 100 μL of minimum essential medium (Welgene; LM007-86) containing 10% dialyzed fetal bovine serum (Gibco; 30067–334) and 1% penicillin/streptomycin (Gibco; 15140-122) and kept in a 37 °C incubator for 24 h. The cells were stained with 100 μL of cytosolic calcium dye using the FLIPR calcium 6 assay solution (Molecular devices, #R8190) supplemented with 2.5 mM probenecid (Sigma; P8761) and incubated for 1 h at 37 °C. After 1 h, the designated amount of the compound was treated in each well and incubated for another 1 h at 37 °C. Then, the cells were loaded in a Flexstation 3 microplate reader (Molecular Devices; FlexStaion) and 50 μL of 5 μM 5HT (serotonin hydrochloride, Sigma; H9523) was injected from a source plate (Nunc 96-well polystyrene conical bottom MicroWell Plate, Thermo; 249662) and the fluorescence intensity (Ex/Em-485nm/ 525 nm) was measured. […]
Antagonism assay Source Stimulus Incubation Measured Detection Method […]

[7] = male, beagle, plasma, 5 mg/kg, IV (5 mpk)
[8] = male, beagle, plasma, 5 mg/kg, PO (5 mpk)

T1 sequence (P08908 whole entry): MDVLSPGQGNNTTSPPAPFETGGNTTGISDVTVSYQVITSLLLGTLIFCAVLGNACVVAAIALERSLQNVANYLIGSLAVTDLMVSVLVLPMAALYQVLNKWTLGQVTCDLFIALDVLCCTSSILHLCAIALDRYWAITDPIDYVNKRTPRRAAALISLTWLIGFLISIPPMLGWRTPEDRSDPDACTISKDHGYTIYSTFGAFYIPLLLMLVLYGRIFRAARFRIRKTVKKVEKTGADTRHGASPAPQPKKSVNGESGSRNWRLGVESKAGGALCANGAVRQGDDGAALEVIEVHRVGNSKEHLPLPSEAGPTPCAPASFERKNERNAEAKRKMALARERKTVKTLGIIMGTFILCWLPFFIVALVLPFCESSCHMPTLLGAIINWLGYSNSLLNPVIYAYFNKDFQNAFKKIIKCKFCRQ
T2 sequence (P28222 whole entry): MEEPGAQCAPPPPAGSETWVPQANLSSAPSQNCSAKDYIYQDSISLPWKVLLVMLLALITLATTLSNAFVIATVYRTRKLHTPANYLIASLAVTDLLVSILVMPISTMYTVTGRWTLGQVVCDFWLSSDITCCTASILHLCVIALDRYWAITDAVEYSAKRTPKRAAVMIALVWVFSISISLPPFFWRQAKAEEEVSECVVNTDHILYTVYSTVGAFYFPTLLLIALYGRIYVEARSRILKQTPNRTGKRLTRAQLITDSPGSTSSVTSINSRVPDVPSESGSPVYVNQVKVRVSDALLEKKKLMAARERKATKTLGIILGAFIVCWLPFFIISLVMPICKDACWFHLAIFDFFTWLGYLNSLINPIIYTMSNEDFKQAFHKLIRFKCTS

SMILES: Cc1nc2n(c(=O)c1CCN1CCC(=C3c4ccc(Cl)cc4CCc4cccnc43)CC1)CCCC2O (centres unmarked) [Compound 11c]
- Relative liver α-SMA expressions in mice, measured using quantitative RT-PCR ([1]; CDAHFD+11c 5 mpk): 2.564 and 0.488 and 1.651 and 1.165 and 1.498
- Relative liver α-SMA expressions in mice, measured using quantitative RT-PCR ([1]; CDAHFD+11c 5 mpk, mean): 1.473
- Relative liver α-SMA expressions in mice, measured using quantitative RT-PCR ([1]; CDAHFD+11c 10mpk): 2.015 and 1.845 and 1.808 and 2.373 and 1.519
- Relative liver α-SMA expressions in mice, measured using quantitative RT-PCR ([1]; CDAHFD+11c 10mpk, mean): 1.912
- mRNA expression of α-SMA in liver tissue ([1]; CDAHFD-fed 11c vs CDAHFD-fed vehicle group): significantly decreased
- remaining at 4 h [2]: > 99.9%
- Selectivity 1 A: % inhibition [3]: 9%
- V ([4]; IV (5 mpk)): 4.36 L/kg
- bioavailability ([4]; male, beagle, plasma, po, 5 mpk, dogs (summary statement), read-out: oral bioavailability): > 60%
- AUC [4, 7]: 16800 ng·h/mL
- clearance [4, 7]: 7 mL/min/kg
- half-life [4, 7]: 8.6 h
- AUC [4, 8]: 19100 ng·h/mL
- half-life [4, 8]: 10.2 h
- bioavailability ([4]; male, beagle, plasma, 5 mg/kg, PO (5 mpk), read-out: F (%)): 73%
- food intake [5]: no significant difference
- Selectivity 1B: % inhibition [6]: 16%
